Key:
Format in all cases: in vivo
[1] = system: Diabrotica balteata (corn root worm); assay: Example B1: Activity against Diabrotica balteata (corn root worm); conditions: 96 h, application rate 200 ppm, maize sprouts sprayed, L2 larvae, 4 days after infestation, read-out: effect in at least one of the two categories (mortality or growth inhibition)
Description: Example B1: Activity Against Diabrotica Balteata (Corn Root Worm)
Maize sprouts placed onto an agar layer in 24-well microtiter plates were treated with aqueous test solutions prepared from 10,000 ppm DMSO stock solutions by spraying. After drying, the plates were infested with L2 larvae (6 to 10 per well). The samples were assessed for mortality and growth inhibition in comparison to untreated samples 4 days after infestation.

[2] = system: Plutella xylostella (diamond back moth); assay: Example B5: Activity against Plutella xylostella (diamond back moth); conditions: 192 h, application rate 200 ppm, artificial diet treated by pipetting, eggs, 8 days after infestation, read-out: effect in at least one of the two categories (mortality or growth inhibition)
Description: Example B5: Activity Against Plutella xylostella (Diamond Back Moth)
24-well microtiter plates with artificial diet were treated with aqueous test solutions prepared from 10,000 ppm DMSO stock solutions by pipetting. After drying, Plutella eggs were pipetted through a plastic stencil onto a gel blotting paper and the plate was closed with it. The samples were assessed for mortality and growth inhibition in comparison to untreated samples 8 days after infestation. The following compounds gave an effect of at least 80% in at least one of the two categories (mortality or growth inhibition) at an application rate of 200 ppm: P1, P2, P4, P5, P6, P7, P9, P10, P11, P12, P13, P14, P15, P16, P17, P18.

[3] = system: Chilo suppressalis (striped rice stemborer); assay: Example B8: Activity against Chilo suppressalis (striped rice stemborer); conditions: 144 h, application rate 200 ppm, artificial diet treated by pipetting, L2 larvae, 6 days after infestation, read-out: control (mortality, anti-feeding effect or growth inhibition)
Description: Example B8: Activity Against Chilo suppressalis (Striped Rice Stemborer)
24-well microtiter plates with artificial diet were treated with aqueous test solutions prepared from 10,000 ppm DMSO stock solutions by pipetting. After drying, the plates were infested with L2 larvae (6-8 per well). The samples were assessed for mortality, anti-feeding effect, and growth inhibition in comparison to untreated samples 6 days after infestation. Control of Chilo suppressalis by a test sample is given when at least one of the categories mortality, anti-feedant effect, and growth inhibition is higher than the untreated sample.

[4] = system: Myzus persicae (green peach aphid); assay: Example B4: Activity against Myzus persicae (green peach aphid), feeding/contact activity; conditions: foliar, 144 h, application rate 200 ppm, sunflower leaf discs sprayed, aphid population of mixed ages, 6 days after infestation
Description: Example B4: Activity Against Myzus persicae (Green Peach Aphid) Feeding/Contact Activity
Sunflower leaf discs were placed onto agar in a 24-well microtiter plate and sprayed with aqueous test solutions prepared from 10,000 ppm DMSO stock solutions. After drying, the leaf discs were infested with an aphid population of mixed ages. The samples were assessed for mortality 6 days after infestation.

[5] = system: Euschistus heros (neotropical brown stink bug); assay: Example B2: Activity against Euschistus heros (neotropical brown stink bug); conditions: 120 h, application rate 200 ppm, soybean leaves sprayed, N2 nymphs, 5 days after infestation, read-out: effect in at least one of the two categories (mortality or growth inhibition)
Description: Example B2: Activity Against Euschistus heros (Neotropical Brown Stink Bug)
Soybean leaves on agar in 24-well microtiter plates were sprayed with aqueous test solutions prepared from 10,000 ppm DMSO stock solutions. After drying the leaves were infested with N2 nymphs. The samples were assessed for mortality and growth inhibition in comparison to untreated samples 5 days after infestation.

[6] = system: Spodoptera littoralis (Egyptian cotton leaf worm); assay: Example B6: Activity against Spodoptera littoralis (Egyptian cotton leaf worm); conditions: foliar, 72 h, application rate 200 ppm, cotton leaf discs sprayed, L1 larvae, 3 days after infestation, read-out: control (mortality, anti-feeding effect or growth inhibition)
Description: Example B6: Activity Against Spodoptera littoralis (Egyptian Cotton Leaf Worm)
Cotton leaf discs were placed onto agar in 24-well microtiter plates and sprayed with aqueous test solutions prepared from 10,000 ppm DMSO stock solutions. After drying the leaf discs were infested with five L1 larvae. The samples were assessed for mortality, anti-feeding effect, and growth inhibition in comparison to untreated samples 3 days after infestation. Control of Spodoptera littoralis by a test sample is given when at least one of the categories mortality, anti-feedant effect, and growth inhibition is higher than the untreated sample.

[7] = system: Frankliniella occidentalis (western flower thrips); assay: Example B3: Activity against Frankliniella occidentalis (western flower thrips), feeding/contact activity; conditions: foliar, 168 h, application rate 200 ppm, sunflower leaf discs sprayed, population of mixed ages, 7 days after infestation
Description: Example B3: Activity Against Frankliniella occidentalis (Western Flower Thrips) Feeding/Contact Activity
Sunflower leaf discs were placed on agar in 24-well microtiter plates and sprayed with aqueous test solutions prepared from 10,000 DMSO stock solutions. After drying the leaf discs were infested with a Frankliniella population of mixed ages. The samples were assessed for mortality 7 days after infestation.

[8] = system: Myzus persicae (green peach aphid); assay: Example B9: Activity against Myzus persicae (green peach aphid), systemic activity; conditions: 144 h, test rate 24 ppm, roots of infested pea seedlings placed into test solution, 6 days
Description: Example B9: Activity Against Myzus persicae (Green Peach Aphid). Systemic Activity
Roots of pea seedlings infested with an aphid population of mixed ages were placed directly into aqueous test solutions prepared from 10,000 DMSO stock solutions. The samples were assessed for mortality 6 days after placing seedlings into test solutions.

[9] = system: Bemisia tabaci (cotton white fly); assay: Example B7: Activity against Bemisia tabaci (cotton white fly), feeding/contact activity; conditions: foliar, 144 h, application rate 200 ppm, cotton leaf discs sprayed, adult white flies, 6 days after incubation
Description: Example B7: Activity Against Bemisia tabaci (Cotton White Fly) Feeding/Contact Activity
Cotton leaf discs were placed on agar in 24-well microtiter plates and sprayed with aqueous test solutions prepared from 10,000 ppm DMSO stock solutions. After drying the leaf discs were infested with adult white flies. The samples were checked for mortality 6 days after incubation.

CCS(=O)(=O)c1c(N2Cc3ccc(OC(F)(F)F)cc3C2=O)nc(-c2cnn(C3CC3)c2)n1C [Compound P1, 2-[2-(1-cyclopropylpyrazol-4-yl)-5-ethylsulfonyl-1-methyl-imidazol-4-yl]-6-(trifluoromethoxy)isoindolin-1-one]
≥ 80%: mortality or growth inhibition at 200 ppm [1] | effect (mortality or growth inhibition) at 200 ppm [2] | control at 200 ppm [3] | mortality at 200 ppm [4] | percent effect (mortality or growth inhibition) at 200 ppm [5] | control at 200 ppm [6] | mortality at 200 ppm [7]

CCS(=O)(=O)c1c(N2Cc3ncc(C(F)(F)F)cc3C2=O)nc(C2CC2)n1C [Compound P17, 6-(2-cyclopropyl-5-ethylsulfonyl-1-methyl-imidazol-4-yl)-3-(trifluoromethyl)-7H-pyrrolo[3,4-b]pyridin-5-one]
≥ 80%: mortality or growth inhibition at 200 ppm [1] | mortality at 24 ppm [8] | effect (mortality or growth inhibition) at 200 ppm [2] | control at 200 ppm [3] | mortality at 200 ppm [9] | mortality at 200 ppm [4] | control at 200 ppm [6]

CCS(=O)(=O)c1c(N2Cc3ncc(C(F)(F)F)cc3C2=O)nc(-c2cnn(CC3CC3)c2)n1C [Compound P9, 6-[2-[1-(cyclopropylmethyl)pyrazol-4-yl]-5-ethylsulfonyl-1-methyl-imidazol-4-yl]-3-(trifluoromethyl)-7H-pyrrolo[3,4-b]pyridin-5-one]
≥ 80%: mortality or growth inhibition at 200 ppm [1] | mortality at 24 ppm [8] | effect (mortality or growth inhibition) at 200 ppm [2] | control at 200 ppm [3] | mortality at 200 ppm [4] | percent effect (mortality or growth inhibition) at 200 ppm [5] | control at 200 ppm [6]

CCS(=O)(=O)c1c(N2Cc3ncc(C(F)(F)F)cc3C2=O)nc(-c2cnn(CC(F)(F)F)c2)n1C [Compound P10, 6-[5-ethylsulfonyl-1-methyl-2-[1-(2,2,2-trifluoroethyl)pyrazol-4-yl]imidazol-4-yl]-3-(trifluoromethyl)-7H-pyrrolo[3,4-b]pyridin-5-one]
≥ 80%: mortality or growth inhibition at 200 ppm [1] | mortality at 24 ppm [8] | effect (mortality or growth inhibition) at 200 ppm [2] | control at 200 ppm [3] | mortality at 200 ppm [4] | percent effect (mortality or growth inhibition) at 200 ppm [5] | control at 200 ppm [6]

CCS(=O)(=O)c1c(N2Cc3ncc(C(F)(F)F)cc3C2=O)nc(-c2cnn(C3CC3)c2)n1C [Compound P2, 6-[2-(1-cyclopropylpyrazol-4-yl)-5-ethylsulfonyl-1-methyl-imidazol-4-yl]-3-(trifluoromethyl)-7H-pyrrolo[3,4-b]pyridin-5-one]
≥ 80%: mortality or growth inhibition at 200 ppm [1] | mortality at 24 ppm [8] | effect (mortality or growth inhibition) at 200 ppm [2] | control at 200 ppm [3] | mortality at 200 ppm [4] | percent effect (mortality or growth inhibition) at 200 ppm [5] | control at 200 ppm [6]

Reference: US20240018128A1, “PESTICIDALLY ACTIVE HETEROCYCLIC DERIVATIVES WITH SULFUR CONTAINING SUBSTITUENTS” (SYNGENTA CROP PROTECTION AG, priority 2020, published 2024)
